Earlier results as cited in patent US11464838B2, “Optimized cancer stem cell vaccines” (COLORADO STATE UNIVERSITY RESEARCH FOUNDATION, priority 2015, dated 2022).

Settings: in vivo

Bioavailability [%]	Biological Half-Life [hours]	SMILES
13	5	CCCCc1ncc(/C=C(\Cc2cccs2)C(=O)O)n1Cc1ccc(C(=O)O)cc1 [Eprosartan]
60	11	CCOc1nc2cccc(C(=O)O)c2n1Cc1ccc(-c2ccccc2-c2noc(=O)[nH]2)cc1 [Azilsartan]
70		CCCCC1=NC2(CCCC2)C(=O)N1Cc1ccc(-c2ccccc2-c2nnn[nH]2)cc1 [Irbesartan]
	2	CCCCc1nc(Cl)c(CO)n1Cc1ccc(-c2ccccc2-c2nn[nH]n2)cc1 [Losartan]
